Measurements from patent EP1094724B1, “USE OF A PHENOL OXIDISING ENZYME IN THE TREATMENT OF TOBACCO” (priority 1998, dated 2000).

System: Myceliopthora thermophila laccase (MtL)
Test: Laccase MtL treatment of tobacco extract, HPLC analysis of phenolic compounds (peak area)
Type: biochemical
Conditions: for Remaining content (% remaining) (peak area relative to the content in the extract): before drying
Description: The content of phenolic compounds is analysed by HPLC according to the procedure described below: • Liquid chromatographic system: E.g. Shimadzu SCL-6B System Controller, and two LC-6A Liquid Chromatograph (pumps) or Waters model 600 E • Injector: Shimadzu SIL 6B Autoinjector or Waters 715 Ultra Wisp. UV detector: Shimadzu SPD-6A Photodiode Array UV-VIS detector or Waters Model 481 • Software: CLASS LC10 / CLASS-MXA or Maxima 820 • Column: Supelcosil™ LC-18 25 cm x 4.6 mm (Supelco, #5-8298) or µ Bondapack C198 stainless steel column, 30 cm x 4 mm i.d., 10 µm particle size. • Guard column: none or Guard-Pak from Waters packed with the same material. • Temperature: Ambient • Mobile phase flow: 1.3 ml/min • Injection volume: 20µl • Wavelength: 350 nm • Eluent: Binary gradient (linear) mixture of A: KH2PO4 (28.4 g in 2000 ml de-mineralised water) and B: methanol (please see table 1 and figure 1). The eluent is filtered through a 0.45 µm filter and degassed before use.
Prior to HPLC analysis, the samples were filtered through a 0.45 µm filter or smaller, e.g. a sterile Sartorius Minisart 0.45 µm filter (#16555) or a Millipore Millex-GS 0.22 µm (#SBGS 0 25 SB) to remove the haze/precipitate normally formed during enzyme treatment. Normally, no dilution of the extract/sample was made before HPLC analysis.
For qualitative and semi-quantitative measurements, each of the standards was dissolved in 96% ethanol, and then mixed in a ratio and at a concentration which was within the range in the tobacco extract. For semi-quantification of the phenolic compounds in the tobacco extract, and as a measure of development in concentration of the various compounds contained in the extract, decrease in peak area relative to the peak area before addition of enzyme was used. As a measure of overall efficiency of the process, degree of reduction in total peak area of all peaks (not only the major ones) in the HPLC chromatogram with retention time Rt>3 min was used (named: "All peaks").
Unless otherwise indicated, the tobacco was extracted at a laboratory scale with water according to the following procedure: 1000 ml demineralised water is heated to 45°C. 30 g tobacco (approx. 25 g d.m.) is added and the mixture stirred by a magnetic bar and occasionally with a stick. After 15 minutes the tobacco residue is separated from the tobacco extract by vacuum filtration (Whatman glass micro fibre GF/F 11 cm). The filtered extract is then vacuum filtered at least once more or until it is completely clear. Yield was around 900 ml tobacco extract. […] No buffer was thus included in any of the trials. D.m. content of the extract was approximately 2.1%.
Tobacco extract (typically 50-100 ml) was poured into a glass beaker and a magnetic bar was added. No pH adjustments were made, and no buffer was added. The tobacco extract was heated to and controlled at 55°C during the entire enzyme treatment by means of a heating plate and a thermostat. Intensive submerse aeration was applied by blowing atmospheric air into the extract by means of a metal sinter (metal suction filter normally used for HPLC). The enzyme in question (TvL or PpL) was added to the desired concentration. Shortly after addition of laccase, the colour of the tobacco extract turned dark brown to black, and with time the liquor became turbid and a precipitate formed. The liquor was sampled with intervals for HPLC analysis.
It is obvious, that MtL can also be used to remove the phenolic compounds. It is evident, that using a dosage of MtL of approximately 0.63 µg/ml, longer processing time is needed compared to using a dosage of 6.3 µg/ml to obtain the same degree of reduction of the phenolic compounds, and that almost complete removal can be obtained with a dosage of approximately 0.63 µg/ml.
Enzyme treatment: MtL enzyme was added at various concentrations in the range 2.5 µg/ml - 6.3 µg/ml. A fixed processing time of 20 minutes was used. […]

Question: How did the “Residual amount (% remaining) (peak area)” value (0 % pO2, 3.8 µg/ml MtL for 20 minutes at pH 5.4 and 55°C) turn out when `COc1cc2ccc(=O)oc2cc1O` [S, 7-Hydroxy-6-methoxy-2H-1-benzopyran-2-one] was run?
Answer: 100%

Question: And the “Residual amount (% remaining) (peak area)” value (2.5 µg MtL /ml, 20 minutes at pH 5.4 and 55°C, intensive submerse aeration)?
Answer: 97%

Question: What about the “Residual amount (% remaining) (peak area)” value (3.8 µg MtL /ml, 20 minutes at pH 5.4 and 55°C, intensive submerse aeration) of the same compound?
Answer: 69%

Question: What about the “Residual amount (% remaining) (peak area)” value (6.3 µg MtL /ml, 20 minutes at pH 5.4 and 55°C, intensive submerse aeration) of the same compound?
Answer: 52%

Question: What about the “Residual amount (% remaining) (peak area)” value (30 % pO2, 3.8 µg/ml MtL for 20 minutes at pH 5.4 and 55°C) of the same compound?
Answer: 75%

Question: And the “Residual amount (% remaining) (peak area)” value (50 % pO2, 3.8 µg/ml MtL for 20 minutes at pH 5.4 and 55°C)?
Answer: 59%

Question: What about the “Residual amount (% remaining) (peak area)” value (90 % pO2, 3.8 µg/ml MtL for 20 minutes at pH 5.4 and 55°C) of the same compound?
Answer: 45%

Question: And the “% Remaining (peak area) after various treatment times” value (shortened to “% Remaining (peak area)”) (10 min, approx. 6.3 µg/ml MtL at pH 5.4 and 55°C, intensive submerse aeration)?
Answer: 78%

Question: What about the “% Remaining (peak area)” value (20 min, approx. 6.3 µg/ml MtL at pH 5.4 and 55°C, intensive submerse aeration) of the same compound?
Answer: 52%

Question: What about the “% Remaining (peak area)” value (67 min, approx. 0.63 µg/ml MtL at pH 5.4 and 55°C, intensive submerse aeration) of the same compound?
Answer: 90%

Question: What about the “% Remaining (peak area)” value (150 min, approx. 0.63 µg/ml MtL at pH 5.4 and 55°C, intensive submerse aeration) of the same compound?
Answer: 76%

Question: What about the “Remaining content (% remaining) (peak area relative to the content in the extract)” value (Sample 4 enzyme treated extract after separation from precipitate, approximately 7.5 µg/ml MtL, 30 minutes, 53-56°C, pH 5.5) of the same compound?
Answer: 47%

Question: And the “Remaining content (% remaining) (peak area relative to the content in the extract)” value (Sample 6 enzyme and bentonite treated extract separated from precipitate and bentonite, approximately 7.5 µg/ml MtL 30 minutes, then bentonite 15 minutes at 50-55°C)?
Answer: 44%
